Drawing on patent US8524766B2, “Modulators of dopamine neurotransmission” (NSAB, Filial af Neurosearch Sweden AB, Sverige, priority 2008, dated 2013), this text covers melting point, ED50 and Locomotor activity for 35 compounds.

Data set [1] has as its system DOPAC (3,4-dihydroxyphenylacetic acid) in the rat striatum. Nature of the data set: Increase of DOPAC in the rat striatum after systemic administration (in vivo neurochemistry). To be noted: sc; estimated ED50 on increase of DOPAC in rat striatum, systemic administration (s.c.), curve fitting. An excerpt: After the behavioural activity sessions, the rats are decapitated and their brains rapidly taken out and put on an ice-cold petri-dish. The limbic forebrain, the striatum, the frontal cortex and the remaining hemispheral parts of each rat are dissected and frozen. Each brain part is subsequently analyzed with respect to its content of monoamines and their metabolites.
The monoamine transmitter substances (NA (noradrenaline), DA (dopamine), 5-HT (serotonin)) as well as their amine (NM (normethanephrine), 3-MT (3-methoxytyramine)) and acid (DOPAC (3,4-dihydroxyphenylacetic acid), 5-HIAA (5-hydroxyindoleacetic acid), HVA (homovanillic acid)) metabolites are quantified in brain tissue homogenates by HPLC separations and electrochemical detection.
The analytical method is based on two chromatographic separations dedicated for amines or acids. Two chromatographic systems share a common auto injector with a 10-port valve and two sample loops for simultaneous injection on the two systems. Both systems are equipped with a reverse phase column (Luna C18(2), dp 3 μm, 50*2 mm i.d., Phenomenex) and electrochemical detection is accomplished at two potentials on glassy carbon electrodes (MF-1000, Bioanalytical Systems, Inc.). The column effluent is passed via a T-connection to the detection cell or to a waste outlet. This is accomplished by two solenoid valves, which block either the waste or detector outlet. By preventing the chromatographic front from reaching the detector, better detection conditions are achieved. The aqueous mobile phase (0.4 ml/min) for the acid system contains citric acid 14 mM, sodium citrate 10 mM, MeOH 15% (v/v) and EDTA 0.1 mM. Detection potentials relative to Ag/AgCl reference are 0.45 and 0.60V. The aqueous ion pairing mobile phase (0.5 ml/min) for the amine system contains citric acid 5 mM, sodium citrate 10 mM, MeOH 9% (v/v), MeCN 10.5% v/v), decane sulfonic acid 0.45 mM, and EDTA 0.1 mM. Detection potentials relative to Ag/AgCl reference are 0.45 and 0.65V.
ED50 values for the increase of DOPAC in striatum are calculated by curve fitting.

The test system of a further data set is drug-naive rats. The experiment in a line: Locomotor activity in drug-naive rats (in vivo behaviour). Also noted: species or system rat. To be noted: recorded for 60 minutes, ± SEM. The text has this: Photobeam sensors are spaced 2.5 cm apart.

Structures can show the parent of a compound that is named as a salt.

Turning to `CC1CCCN(C[C@@H]2COc3ccc(S(C)(=O)=O)cc3O2)C1` (some centres unmarked) (as salt: fumaric acid salt), the melting point stood at 159 °C.
The same measure, in the same setting: the value for `CS(=O)(=O)c1ccc2c(c1)OC(CN1CCCC1)CO2` (centres unmarked) (as salt: hydrochloric acid salt) was 221 °C; that for `CC(C)CNC[C@@H]1COc2ccc(S(C)(=O)=O)cc2O1` (as salt: hydrochloric acid salt) was 213 °C.
Same read-out and setting: the value for `CC(C)CNC[C@H]1COc2ccc(S(C)(=O)=O)cc2O1` (as salt: hydrochloric acid salt) was 214 °C; that for `CNCC1COc2c(F)cc(S(C)(=O)=O)cc2O1` (centres unmarked) (as salt: hydrochloric acid salt) was 243 °C; that for `CCNC[C@H]1COc2ccc(S(=O)(=O)C(F)(F)F)cc2O1` (as salt: hydrochloric acid salt) was 208 °C.
With `CCNC[C@H]1COc2ccc(S(C)(=O)=O)c(F)c2O1` (as salt: hydrochloric acid salt), the melting point turned out to be 270 °C.
The same measure, in the same setting: next, `CCNC[C@H]1COc2c(Cl)cc(S(C)(=O)=O)cc2O1` (as salt: hydrochloric acid salt): 267 °C.
Still for that read-out and setting: the value for `CS(=O)(=O)c1ccc2c(c1)O[C@@H](CNCCC(F)(F)F)CO2` (as salt: hydrochloric acid salt) was 204 °C; that for `CCNCC1COc2ccc(S(C)(=O)=O)cc2O1` (centres unmarked) (as salt: hydrochloric acid salt) was 261 °C.
The same measure, in the same setting: next, `CS(=O)(=O)c1cc(F)c2c(c1)O[C@@H](CNCCC(F)(F)F)CO2` (as salt: hydrochloric acid salt): 233 °C; `CNC[C@H]1COc2c(F)cc(S(C)(=O)=O)cc2O1` (as salt: hydrochloric acid salt): 260 °C.
Compound `CCNC[C@H]1COc2ccc(S(C)(=O)=O)cc2O1` (as salt: hydrochloric acid salt) gave a melting point of 271 °C.
Still for that read-out and setting: next, `CNC[C@H]1COc2c(Cl)cc(S(C)(=O)=O)cc2O1` (as salt: hydrochloric acid salt): 262 °C; `CC(C)(C)CNC[C@H]1COc2ccc(S(C)(=O)=O)cc2O1` (as salt: hydrochloric acid salt): 242 °C; `CS(=O)(=O)c1cc(F)c2c(c1)O[C@@H](CN1CCOCC1)CO2` (as salt: hydrochloric acid salt): 251 °C.
Regarding `CCCNCC1COc2ccc(S(C)(=O)=O)cc2O1` (centres unmarked) (as salt: hydrochloric acid salt) [Example 1, N-{[7-(METHYLSULFONYL)-2,3-DIHYDRO-1,4-BENZODIOXIN-2-YL]METHYL}-PROPAN-1-AMINE], the melting point was determined as 223 °C.
For `CCCNC[C@@H]1COc2ccc(S(C)(=O)=O)cc2O1` (as salt: hydrochloric acid salt) [Example 2, N-{[(2R)-7-(METHYLSULFONYL)-2,3-DIHYDRO-1,4-BENZODIOXIN-2-YL]METHYL}-PROPAN-1-AMINE], the melting point turned out to be 228 °C.
Still for that read-out and setting: the value for `CCCNC[C@H]1COc2ccc(S(C)(=O)=O)cc2O1` (as salt: hydrochloric acid salt) [Example 3, N-{[(2S)-7-(METHYLSULFONYL)-2,3-DIHYDRO-1,4-BENZODIOXIN-2-YL]METHYL}-PROPAN-1-AMINE] was 228 °C.
As to `CS(=O)(=O)c1ccc2c(c1)OC(CN1CCCCC1)CO2` (centres unmarked) (as salt: hydrochloric acid salt) [Example 6, 1-{[7-(METHYLSULFONYL)-2,3-DIHYDRO-1,4-BENZODIOXIN-2-YL]METHYL}PIPERIDINE], the melting point was found to be 248 °C.
`CS(=O)(=O)c1ccc2c(c1)O[C@@H](CN1CCCCC1)CO2` (as salt: hydrochloric acid salt) [Example 7, 1-{[(2S)-7-(METHYLSULFONYL)-2,3-DIHYDRO-1,4-BENZODIOXIN-2-YL]METHYL}PIPERIDINE] yielded a melting point of 227 °C.
Still for that read-out and setting: the value for `CS(=O)(=O)c1ccc2c(c1)O[C@H](CN1CCCCC1)CO2` (as salt: hydrochloric acid salt) [Example 8, 1-{[(2R)-7-(METHYLSULFONYL)-2,3-DIHYDRO-1,4-BENZODIOXIN-2-YL]METHYL}PIPERIDINE] was 226 °C.
Same read-out and setting: next, `CNCC1COc2ccc(S(C)(=O)=O)cc2O1` (centres unmarked) (as salt: hydrochloric acid salt) [Example 9, N-METHYL-1-[7-(METHYLSULFONYL)-2,3-DIHYDRO-1,4-BENZODIOXIN-2-YL]METHANAMINE]: 273 °C.
`CNC[C@H]1COc2ccc(S(C)(=O)=O)cc2O1` (as salt: hydrochloric acid salt) [Example 10, N-METHYL-1-[(2S)-7-(METHYLSULFONYL)-2,3-DIHYDRO-1,4-BENZODIOXIN-2-YL]METHANAMINE] came in with a melting point of 248 °C.
Still for that read-out and setting: the value for `CCCN(C)CC1COc2ccc(S(C)(=O)=O)cc2O1` (centres unmarked) (as salt: hydrochloric acid salt) [Example 15, N-METHYL-N-{[7-(METHYLSULFONYL)-2,3-DIHYDRO-1,4-BENZODIOXIN-2-YL]METHYL}PROPAN-1-AMINE] was 222 °C; that for `CCCN(CCC)CC1COc2ccc(S(C)(=O)=O)cc2O1` (centres unmarked) (as salt: hydrochloric acid salt) [Example 16, N-{[7-(METHYLSULFONYL)-2,3-DIHYDRO-1,4-BENZODIOXIN-2-YL]METHYL}-N-PROPYLPROPAN-1-AMINE] was 182 °C.
Same read-out and setting: the value for `CCNCC1COc2c(F)cc(S(C)(=O)=O)cc2O1` (centres unmarked) (as salt: hydrochloric acid salt) [Example 18, N-{[5-FLUORO-7-(METHYLSULFONYL)-2,3-DIHYDRO-1,4-BENZODIOXIN-2-YL]METHYL}ETHANAMINE] was 256 °C; that for `CCNC[C@H]1COc2c(F)cc(S(C)(=O)=O)cc2O1` (as salt: hydrochloric acid salt) [Example 19, N-{[(2S)-5-FLUORO-7-(METHYLSULFONYL)-2,3-DIHYDRO-1,4-BENZODIOXIN-2-YL]METHYL}ETHANAMINE] was 274 °C.
Same read-out and setting: next, `CCCNC[C@H]1COc2c(F)cc(S(C)(=O)=O)cc2O1` (as salt: hydrochloric acid salt) [Example 21, N-{[(2S)-5-FLUORO-7-(METHYLSULFONYL)-2,3-DIHYDRO-1,4-BENZODIOXIN-2-YL]METHYL}PROPAN-1-AMINE]: 226 °C; `CCCNC[C@H]1COc2ccc(S(=O)(=O)C(F)(F)F)cc2O1` (as salt: hydrochloric acid salt) [Example 24, N-{[(2S)-7-(TRIFLUOROMETHYLSULFONYL)-2,3-DIHYDRO-1,4-BENZODIOXIN-2-YL]METHYL}PROPAN-1-AMINE]: 175 °C.
Consider `CCCNC[C@H]1COc2c(F)cc(S(C)(=O)=O)cc2O1` (as salt: hydrochloric acid salt) [Example 76, N-{[(2S)-5-FLUORO-7-(METHYLSULFONYL)-2,3-DIHYDRO-1,4-BENZODIOXIN-2-YL]METHYL}-PROPAN-1-AMINE], for which the melting point was determined as 192 °C.
The same measure, in the same setting: next, `CC(C)NC[C@H]1COc2ccc(S(=O)(=O)C(F)(F)F)cc2O1` (as salt: hydrochloric acid salt) [Example 98, N-({(2S)-7-[(TRIFLUOROMETHYL)SULFONYL]-2,3-DIHYDRO-1,4-BENZODIOXIN-2-YL}METHYL)PROPAN-2-AMINE]: 196.2 to 196.5 °C.
`CCCNC[C@@H]1COc2ccc(S(C)(=O)=O)cc2O1` [Example 2, N-{[(2R)-7-(METHYLSULFONYL)-2,3-DIHYDRO-1,4-BENZODIOXIN-2-YL]METHYL}-PROPAN-1-AMINE]: in data set [1], the ED50 is 47 µmol/kg. The Locomotor activity in the data set with drug-naive rats (3.7 μmol/kg) amounted to 10728 ± 1557 counts/60 min; in the data set on drug-naive rats (11 μmol/kg), 10346 ± 857 counts/60 min; in the data set on drug-naive rats (33 μmol/kg), 11427 ± 1559 counts/60 min.
The corresponding values for `CCCNC[C@H]1COc2ccc(S(C)(=O)=O)cc2O1` [Example 3, N-{[(2S)-7-(METHYLSULFONYL)-2,3-DIHYDRO-1,4-BENZODIOXIN-2-YL]METHYL}-PROPAN-1-AMINE] are 6.1 µmol/kg, 10297 ± 860 counts/60 min, 8973 ± 2186 counts/60 min and 6830 ± 128 counts/60 min.
The corresponding values for `CS(=O)(=O)c1ccc2c(c1)O[C@@H](CN1CCCCC1)CO2` [Example 7, 1-{[(2S)-7-(METHYLSULFONYL)-2,3-DIHYDRO-1,4-BENZODIOXIN-2-YL]METHYL}PIPERIDINE] are 12 µmol/kg, 7905 ± 656 counts/60 min, 5469 ± 734 counts/60 min and 3334 ± 780 counts/60 min.

The term melting point denotes the temperature of the solid-liquid transition. For orientation: ED50 means the midpoint of the dose-response relation.
